Test results published in publication PMC8629650, “Novel Elongator Protein 2 Inhibitors Mitigating Tumor Necrosis Factor-α Induced Osteogenic Differentiation Inhibition” (BioMed Research International, 2021).
pEC50, pKd: −log10 of the molar value. Where two headings read alike, the source gives them in different places.

How the values were obtained:
[1] = target: T1, mouse ELP2 protein (Mus musculus, UniProt Q91WG4); assay: Surface plasmon resonance (SPR) affinity analysis, compounds fixed on the chip; assay type: binding; conditions: for koff: read-out: Avg Koff; for kon: read-out: Avg Kon; for dissociation rate (in words): excluded from further testing
T1 sequence (Q91WG4 1-831): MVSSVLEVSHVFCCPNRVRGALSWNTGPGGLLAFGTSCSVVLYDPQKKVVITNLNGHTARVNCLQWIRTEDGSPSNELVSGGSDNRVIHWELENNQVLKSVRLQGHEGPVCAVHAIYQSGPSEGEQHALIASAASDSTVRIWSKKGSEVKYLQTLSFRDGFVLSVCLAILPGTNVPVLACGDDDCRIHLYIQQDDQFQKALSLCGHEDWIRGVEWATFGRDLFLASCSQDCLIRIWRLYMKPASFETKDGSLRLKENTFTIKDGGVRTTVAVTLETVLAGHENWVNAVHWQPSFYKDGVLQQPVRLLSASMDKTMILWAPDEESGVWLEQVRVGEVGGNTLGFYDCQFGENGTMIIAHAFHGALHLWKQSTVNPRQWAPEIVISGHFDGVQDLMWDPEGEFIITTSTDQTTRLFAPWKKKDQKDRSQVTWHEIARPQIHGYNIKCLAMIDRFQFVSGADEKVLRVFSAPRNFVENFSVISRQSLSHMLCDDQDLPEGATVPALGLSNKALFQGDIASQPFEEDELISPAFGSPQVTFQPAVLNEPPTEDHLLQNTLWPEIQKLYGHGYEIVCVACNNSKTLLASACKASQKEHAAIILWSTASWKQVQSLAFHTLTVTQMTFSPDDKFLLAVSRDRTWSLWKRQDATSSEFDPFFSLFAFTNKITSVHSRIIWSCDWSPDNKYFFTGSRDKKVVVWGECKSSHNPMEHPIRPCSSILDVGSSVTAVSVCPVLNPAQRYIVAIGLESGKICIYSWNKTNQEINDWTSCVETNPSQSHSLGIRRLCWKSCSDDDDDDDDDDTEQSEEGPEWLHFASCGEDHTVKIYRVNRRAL
Description: To validate the binding affinity of the candidate compounds with ELP2 protein, we tested the binding affinity through SPR assay. The experiment was performed as previous reported. Briefly, the candidate molecules are crossed onto the chip surface by hydrogen substitution reaction. During the experimental SPR, the chips were first primed with running buffer (1x PBS containing 5% DMSO). […] To validate the reliability of our method, we selected biotin and rapamycin binding with FKBP12 as a system control. Additionally, the solvents DMSO for compounds and PBS (pH = 7.0) for proteins were measured individually as blank controls and background noise controls.
Under the technique of photo-cross-linker biosensor chip, the candidate compounds were immobilized onto the chemically modified chip surface in random orientations and without any attached label or linker. After the compounds were fixed onto the surface of the chip, ELP2 protein solved in PBS were passed over the chip surface. The original sensor gram information was collected in real time.
The raw sensor gram information was collected in real time. The binding of each compound to the ELP2 protein during each cycle is represented by the response unit (RU) of surface resonance.

[2] = system: C2C12 cells; assay: Mineralization assessment by Alizarin Red S staining; assay type: cell-based; conditions: day 35, vs. TNF-α control
Source text: (§1) As reported, in two differentiation cell models, the culture medium was replaced every 3 days till 35th day. Mineralization of the cell was found by staining using the Optimized Alizarin Red S Stain Kit by the kit instructions.
(§2) In order to test the function of the candidate compounds on the mineralization activity during osteoblasts differentiation, the self-differentiation (SD) model and inflammatory-differentiated (ID) model cells were stained with Alizarin Red S staining on day 35 after differentiation induction, and the mineralization activity of each group can be estimated by the number of stained spots.
(§3) Figure 5 Alizarin Red S staining of differentiated osteogenic cells, the self-differentiation (SD) model, and inflammatory-differentiated (ID) model cells were stained with Alizarin Red S staining on day 35 after differentiation induction, and the mineralization activity of each group can be estimated by the number of stained spots (bar = 50 μm).

[3] = system: MC3T3-E1 cells; assay: as above; assay type: cell-based; conditions: day 35, vs. TNF-α control
Source text: as §1, §2, §3

[4] = system: MC3T3-E1 cells; assay: Alkaline phosphatase (ALP) activity under TNF-α-induced osteogenic differentiation inhibition, SD model; assay type: cell-based; conditions: for pEC50: Mus musculus, SD model, TNF-α; for effect on TNF-α-induced inhibition of osteoblast differentiation (ALP stain and activity): vs. TNF-α group
Description: (§4) C2C12 cells were kept in DMEM complemented with the 10% fetal dairy serum and 1% penicillin/streptomycin and MC3T3-E1 cells in minimally needed culture medium (MEM, HyClone, GE Healthcare, USA) supplemented with 10% fetal bovine serum and 1% penicillin/streptomycin, were grown individually, and then cultured at 37.0°C, 5% CO2. As previously reported, cells were cultured for differentiation induction in the presence of TNF-α with or without our candidate compounds.
(§5) […] was detected by ALP activity via the alkaline phosphatase assay kit followed by the instruction. A BioTek microplate spectrophotometer was used to assay the apparent density at the wavelength of 405 nm. ALP activity values are equally common in the density protein found in stem cells determined to use the BCA Protein Assay Kit.
(§6) To determine the effect of the candidate compounds on TNF-α-induced osteogenic differentiation inhibition, we examined the activity of osteogenic marker alkaline phosphatase in the cells. As mentioned in Materials and Method, cells were grown in an adequate osteoblast differentiation environment and tested the alkaline phosphatase activity.
(§7) Figure 3 The ALP stain and activity measurements of 2# and 5# candidate on C2C12 and MC3T3-E1 cell osteogenic differentiations. 2# and 5# compounds show remarkable mitigation against TNF-α induced ALP activity inhibition. The ALP staining observation in each group (a, c). The relative ALP activity were measured from the cell lysates of each group (b, d). Data are mean ± SD; ^∗P < 0.05, ^∗∗P < 0.01, each experiment group vs. the TNF-α treatment cell group.

[5] = system: C2C12 cells; assay: Alkaline phosphatase (ALP) activity under TNF-α-induced osteogenic differentiation inhibition, ID model; assay type: cell-based; conditions: for effect on TNF-α-induced inhibition of osteoblast differentiation (ALP stain and activity) / pEC50: C2C12 cells; for effect on TNF-α-induced inhibition of osteoblast differentiation (ALP stain and activity): vs. TNF-α group; for pEC50: Mus musculus, ID model, TNF-α; for effect on TNF-α-induced inhibition (ALP), data not shown: cell model not specified (C2C12 / MC3T3-E1)
Description: as §4, §5, §6, §7

[6] = system: COL-I, ALP, OCN, BMP-2, RUNX-2 and OSX genes in C2C12 and MC3T3-E1 cells; assay: Q-PCR of osteogenic differentiation marker genes after TNF-α stimulation; assay type: cell-based; conditions: day 7, C2C12 and MC3T3-E1, vs. TNF-α-stimulated cells
Description: The total mRNA was extracted from cell culture using TRIzol reagent (Thermo Scientific USA). The concentration and quality of the RNA were checked using a NanoDrop™ 8000 spectrophotometer, and cDNA was then synthesized. Gene expression according to the recommendations of the reverse transcription kit was detected. Host gene β-actin was selected as the reference gene, and the gene expression level analysis was calculated by the 2^-ΔΔCt quantification method.
(§8) In order to investigate the changes in osteogenic differentiation associated molecules including COL-I, ALP, OCN, BMP-2, RUNX-2, and OSX genes, we performed Q-PCR and Western blot analysis on the differentiation cellular models on the 7th day after osteoblast cell differentiation are shown in Table 2. […] The level of above gene expression was raised in the 2# and the 5# candidate-treated cell with cell morphology phenotype differentiation when compared to the cell stimulated with TNF-α (Figure 6). A further study of the expression of osteoblastic markers at the protein level was performed using Western blot.
Figure 6 Effect of 2# and 5# treatment on TNF-α-stimulated C2C12 (a) and MC3T3-E1 (b) cell osteoblast differentiation-associated marker gene expression. Q-PCR analysis in the differentiation was conducted on the 7th day after osteoblast cell differentiation in the ID and SD models. […]

[7] = system: osteogenic differentiation marker proteins in differentiation model cells; assay: Western blot of osteogenic differentiation markers after TNF-α treatment; assay type: cell-based; conditions: day 7, vs. TNF-α treatment
Description: After treatment, using PBS to wash the cells, the cells were lysed with RIPA lysis buffer. The cell lysate was then separated by SDS-PAGE. All proteins were transferred to PVDF membranes (Bio-Rad, USA). The PVDF membrane was then blocked with 5% skim milk in Tris-buffered physiological saline -0.1% Tween-20 for 1 hour and incubated with the following primary antibody: anti-ALP antibody (rabbit), anti-COL-1 antibody (mouse), anti-OCN antibody (mouse), anti-BMP-2 antibody (mouse), anti-Runx2 antibody (mouse), Anti-Osterix (rabbit), and anti-β-actin (mouse), followed by suitable horseradish peroxidase- (HRP-) labeled secondary antibody, blocking buffer for goat anti-rabbit IgG. Images were captured using G&E imaging system.
as §8, with “blot. […]” for “blot.”

[8] = SPR, Elp2 protein 200 nM to 3200 nM passed over the immobilized compound, read-out: Avg KD
[9] = SPR, Elp2 protein 200 nM to 3200 nM passed over the immobilized compound

COc1ccc([C@H](CC(=O)N[C@@H](Cc2ccccc2)C(N)=O)c2oc(C)cc(=O)c2O)cc1 [1#]
pKd [1, 8]: 3.93
koff [1, 9]: 0.234 s⁻¹
kon [1, 9]: 1980 M⁻¹ s⁻¹
dissociation rate (in words) ([1]; SPR): much faster dissociation rates

O=C1c2ccccc2-c2c1c1ccccc1c(=O)n2NCCO [2#]
mineralization activity (Alizarin Red S stained spots) [2]: increased the red spot on the cell surface
mineralization activity (Alizarin Red S stained spots) [3]: increased the red spot on the cell surface
pEC50 [4]: 4.53
effect on TNF-α-induced inhibition of osteoblast differentiation (ALP stain and activity) [4]: significant ease to TNF-α-induced inhibition of osteoblast differentiation
pKd [1, 8]: 5.84
koff [1, 9]: 0.000241 s⁻¹
kon [1, 9]: 165 M⁻¹ s⁻¹
effect on TNF-α-induced inhibition of osteoblast differentiation (ALP stain and activity) [5]: significant ease to TNF-α-induced inhibition of osteoblast differentiation
pEC50 [5]: 4.83
expression level of osteogenic differentiation marker genes (COL-I, ALP, OCN, BMP-2, RUNX-2, OSX) [6]: raised
expression of osteogenic differentiation marker proteins [7]: increased

Cc1cc(=O)c2c(o1)[C@H](c1cccc(O)c1)CC(=O)O2 [3#]
koff [1, 9]: 0.45 s⁻¹
kon [1, 9]: 2.31 M⁻¹ s⁻¹

COCn1ncnc1NCCn1c(C)cc(O)cc1=O [4#]
koff [1, 9]: 0.342 s⁻¹
kon [1, 9]: 1.85 M⁻¹ s⁻¹

COc1cc(CCN)c(-c2csc(-c3ccc(O)cc3)n2)cc1OC [5#]
mineralization activity (Alizarin Red S stained spots) [2]: increased the red spot on the cell surface
mineralization activity (Alizarin Red S stained spots) [3]: increased the red spot on the cell surface
pEC50 [4]: 4.74
effect on TNF-α-induced inhibition of osteoblast differentiation (ALP stain and activity) [4]: significant ease to TNF-α-induced inhibition of osteoblast differentiation
pKd [1, 8]: 5.48
koff [1, 9]: 0.0122 s⁻¹
kon [1, 9]: 3720 M⁻¹ s⁻¹
effect on TNF-α-induced inhibition of osteoblast differentiation (ALP stain and activity) [5]: significant ease to TNF-α-induced inhibition of osteoblast differentiation
pEC50 [5]: 4.92
expression level of osteogenic differentiation marker genes (COL-I, ALP, OCN, BMP-2, RUNX-2, OSX) [6]: raised
expression of osteogenic differentiation marker proteins [7]: increased

COc1cccc(N2Cc3nn(Cc4ccccc4Cl)c(=O)n3C2=O)c1 [6#]
koff [1, 9]: 0.415 s⁻¹
kon [1, 9]: 2.54 M⁻¹ s⁻¹

COc1ccc(C(CC(=O)NC(C)C(N)=O)c2oc(C)cc(=O)c2O)cc1 (centres unmarked) [7#]
pKd [1]: 5.50
koff [1]: 0.0011 s⁻¹
kon [1]: 347 M⁻¹ s⁻¹
effect on TNF-α-induced inhibition (ALP), data not shown [5]: only slightly easing of the inhibition resulting from TNF-α

CC1CCCC2(C)CC3OC(=O)C(CN4CCN(C(=O)c5ccco5)CC4)C3C=C12 (centres unmarked) [8#]
pKd [1, 8]: 7.03
koff [1, 9]: 0.00105 s⁻¹
kon [1, 9]: 11200 M⁻¹ s⁻¹
effect on TNF-α-induced inhibition (ALP), data not shown [5]: only slightly easing of the inhibition resulting from TNF-α

Cc1cc(O)cc(=O)n1C[C@H](O)c1ccc(O)cc1 [9#]
pKd [1, 8]: 3.83
koff [1, 9]: 0.075 s⁻¹
kon [1, 9]: 502 M⁻¹ s⁻¹
dissociation rate (in words) ([1]; SPR): much faster dissociation rates

COc1ccc2c(c1)C(CCn1c(C)cc(O)cc1=O)C(=O)N2 (centres unmarked) [10#]
koff [1, 9]: 0.504 s⁻¹
kon [1, 9]: 2.18 M⁻¹ s⁻¹

Cc1cc(O)cc(=O)n1C[C@@H](O)c1cccc(O)c1 [11#]
pKd [1, 8]: 5.46
koff [1, 9]: 0.000774 s⁻¹
kon [1, 9]: 222 M⁻¹ s⁻¹
effect on TNF-α-induced inhibition (ALP), data not shown [5]: only slightly easing of the inhibition resulting from TNF-α
